Data published in US11939340B2, “CDK inhibitors and their use as pharmaceuticals” (Prelude Therapeutics Incorporated, priority 2022, dated 2024).

Legend:
CDK4/Cyclin D1 = biological target: T1, CDK4/Cyclin D1 (Homo sapiens, UniProt P11802); test: CDK4/CyclinD1 Enzymatic Activity Assay (TR-FRET); format: biochemical; conditions: CDK4/CyclinD1 1 nM, ATP 2 mM, read-out: CDK4_D1 IC50
T1 construct: purchased ProQinase; host or cells: insect cell
Method: CDK4/CyclinD1 Enzymatic Activity Assay
The inhibitory activity of compounds was evaluated in vitro using TR-FRET assay with white 384-well low volume microplate (Greiner Bio-One). CDK4/Cyclin D1 catalyzed phosphorylation of peptide in the presence and absence of compounds was measured and used in IC50 determination. Recombinant protein complex CDK4/Cyclin D1, expressed from insect cell, was purchased from ProQinase. Testing compounds were dissolved in DMSO at 1 mM and tested in 9-dose IC50 mode. The reaction mixture was prepared by mixing CDK4/CyclinD1 (1 nM final), ULight-4E-BP1 (100 nM final, Perkinelmer, TRF0128-D), and ATP (2 mM final) in assay buffer (20 mM of HEPES pH 7.4, 1 mM of EGTA, 0.05% BSA, 0.005% Tween 20, and 1 mM TCEP). The compound of interest in DMSO was added to each well in 3-fold serial dilution by the dispenser (TECAN D300E) to make a 9.9 μL of reaction mixture. After 20 minutes preincubation at room temperature, 0.1 μL MgCl2 (10 mM final) was added to initiate the reaction. Following a 45 minute incubation at 37° C., the reaction was stopped by addition of 2 μL of quenching buffer consisting of Lance detection buffer (Perkinelmer CR97-100C), LANCE Ultra Europium-anti-P-4E-BP1 (Perkinelmer, TRF0216-D), EDTA, and incubated at room temperature for additional 60 minutes in dark. The reaction signal was measured by Envision multimode plate reader (PerkinElmer, 2102-0010). IC50 values were determined by fitting the data to the standard 4 parameters with Hill Slope using GraphPad Prism software.

CDK2/Cyclin E2 = CDK2/Cyclin E2 (Homo sapiens, UniProt P24941); test: CDK2/CyclinE2 Enzymatic Activity Assay (TR-FRET); format: biochemical; conditions: CDK2/CyclinE2 1 nM, ATP 1 mM, read-out: CDK2_El IC50
Method: CDK2/CyclinE2 Enzymatic Activity Assay
The inhibitory activity of compounds was evaluated in vitro using TR-FRET assay with white 384-well low volume microplate (Greiner Bio-One). CDK2/Cyclin E2 catalyzed phosphorylation of peptide in the presence and absence of compounds was measured and used in IC50 determination. Recombinant protein complex CDK2/Cyclin E2, expressed from insect cell, was purchased from ProQinase. Testing compounds were dissolved in DMSO at 1 mM and tested in 9-dose IC50 mode. The reaction mixture was prepared by mixing CDK2/CyclinE2 (1 nM final), ULight-4E-BP1 (50 nM final, Perkinelmer, TRF0128-D), and ATP (1 mM final) in assay buffer (20 mM of HEPES pH 7.4, 1 mM of EGTA, 0.05% BSA, 0.005% Tween 20, and 1 mM TCEP). The compound of interest in DMSO was added to each well in 3-fold serial dilution by dispenser (TECAN D300E) to make a 9.9 μL of reaction mixture. After 20 minutes preincubation at room temperature, 0.1 μL MgCl2 (10 mM final) was added to initiate the reaction. Following a 45 minute incubation at 37° C., the reaction was stopped by addition of 2 μL of quenching buffer consisting of Lance detection buffer (Perkinelmer CR97-100C), LANCE Ultra Europium-anti-P-4E-BP1 (Perkinelmer, TRF0216-D), EDTA, and incubate at room temperature for additional 60 minutes in the dark. The reaction signal was measured by Envision multimode plate reader (PerkinElmer, 2102-0010). IC50 values were determined by fitting the data to the standard 4 parameters with Hill Slope using GraphPad Prism software.

pRB in OVCAR3 cells = test: pRB ICW Assay in OVCAR3 Cells; format: cell-based; conditions: Homo sapiens, OVCAR-3, incubated with compound for 2 hours, read-out: OVCAR3 p-RB ICW IC50
Method: pRB ICW Assay in OVCAR3 Cells
OVCAR3 cells were maintained in RPMI (Corning, Catalog #: 10-040-CV) supplemented with 10% v/v FBS (Gibco, Catalog #: 26140-079), 1% v/v Penicillin Streptomycin (Gibco, Catalog #15140-122.) OVCAR3 cells grown at log phase were trypsinized, counted, and resuspended in fresh medium to reach a final density of 6.7e4 cells/mL and 75 μL of culture were dispensed into a 384-well plate (Falcon, cat #353962) using a Multidrop Combi dispenser (Thermo Scientific). The next day, compounds were dispensed as a 9-point, ½ log serial dilution using a Tecan digital dispenser (D300e), and cells were incubated with compound for 2 hours in a humidified incubator at 37° C. A reference compound at a final concentration of 10 μM was used as a control for maximum inhibition. Each compound was tested in duplicates for each experiment. At the end of the incubation, 25 μL of 16% paraformaldehyde (Electron Microscopy, cat #15710) was slowly added to each well and the plate was incubated at room temperature (RT) for 30 minutes to fix cells. Cells were then permeabilized by incubating with 50 μL/well of wash buffer (lx PBS with 0.1% Triton X-100) 5×5 minutes, followed by 1 hour blocking with 30 μL/well of Odyssey blocking buffer (Li—COR, cat #927-40000), at RT. Anti-phosphor RB antibody (Cell signaling 8516S) was diluted 1:1000 in Odyssey blocking buffer and 20 μL was added to all wells and incubated overnight in 4° C. with gently rocking. The next day, cells were washed 5×5 min with 50 μL/well of wash buffer, followed with 1 hour incubation with secondary antibody and DRAQ5 diluted in Odyssey blocking buffer (1:500 dilution for secondary antibody and 1:2000 dilution for DRAQ5), 5×5 min washes, and one last wash with water. Plates were dried in 37° C. oven for 5 minutes and scanned using Li—COR Odyssey CLx imaging system to acquire intensities at 700 and 800 nm channels.

T1 sequence (P11802 whole entry): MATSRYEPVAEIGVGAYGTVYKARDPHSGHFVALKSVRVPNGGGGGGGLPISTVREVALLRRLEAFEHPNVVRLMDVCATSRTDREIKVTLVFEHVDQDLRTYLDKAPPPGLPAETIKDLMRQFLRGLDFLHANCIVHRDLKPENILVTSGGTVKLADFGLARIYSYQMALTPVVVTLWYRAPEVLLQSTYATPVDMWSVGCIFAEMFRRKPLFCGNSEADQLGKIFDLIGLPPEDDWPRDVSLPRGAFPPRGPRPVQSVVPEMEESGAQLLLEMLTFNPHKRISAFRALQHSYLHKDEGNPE
T1 sequence (P24385 whole entry partner): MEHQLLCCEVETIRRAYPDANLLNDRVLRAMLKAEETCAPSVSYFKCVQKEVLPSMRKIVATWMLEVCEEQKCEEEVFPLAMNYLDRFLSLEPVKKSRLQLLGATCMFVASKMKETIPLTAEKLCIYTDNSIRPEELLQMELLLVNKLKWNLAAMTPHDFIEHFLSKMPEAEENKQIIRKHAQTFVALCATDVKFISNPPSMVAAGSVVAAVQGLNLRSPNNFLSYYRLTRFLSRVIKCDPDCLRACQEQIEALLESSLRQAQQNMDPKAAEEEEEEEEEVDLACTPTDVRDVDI

## CCC12CCCN1C(=O)c1cc(-c3nc(NC4CCN(S(C)(=O)=O)CC4)ncc3C)sc12 (stereo not drawn) [Example 16, 8a-Ethyl-2-[5-methyl-2-[(1-methylsulfonylpiperidin-4-yl)amino]pyrimidin-4-yl]-7,8-dihydro-6H-thieno[2,3-a]pyrrolizin-4-one]
CDK4/Cyclin D1
  IC50: ≤ 100 nM
CDK2/Cyclin E2
  IC50: ≤ 100 nM
pRB in OVCAR3 cells
  IC50: ≤ 100 nM

## CS(=O)(=O)N1CCC(Nc2ncc(C(F)(F)F)c(-c3cc4c(s3)C3(C5CC(F)(F)C5)CCCN3C4=O)n2)CC1 (stereo not drawn) [Example 24, 8a-(3,3-Difluorocyclobutyl)-2-(2-((1-(methylsulfonyl)piperidin-4-yl)amino)-5-(trifluoromethyl)pyrimidin-4-yl)-6,7,8,8a-tetrahydro-4H-thieno[2,3-a]pyrrolizin-4-one]
CDK4/Cyclin D1
  IC50: ≤ 100 nM
CDK2/Cyclin E2
  IC50: ≤ 100 nM
pRB in OVCAR3 cells
  IC50: 100 to 500 nM

## CC(C)C12CCCCN1C(=O)c1cc(-c3nc(NC4CCN(S(C)(=O)=O)CC4)ncc3C(F)(F)F)sc12 (stereo not drawn) [Example 1, 9a-isopropyl-2-(2-((1-(methylsulfonyl)piperidin-4-yl)amino)-5-(trifluoromethyl)pyrimidin-4-yl)-7,8,9,9a-tetrahydrothieno[2,3-a]indolizin-4(6H)-one]
CDK4/Cyclin D1
  IC50: ≤ 100 nM
CDK2/Cyclin E2
  IC50: ≤ 100 nM
pRB in OVCAR3 cells
  IC50: 100 to 500 nM

## CCC12CC(NC)CN1C(=O)c1cc(-c3nc(N[C@H]4CCN(S(=O)(=O)c5cnn(C)c5)C[C@H]4C)ncc3C(F)(F)F)sc12 (stereo partly drawn) [Example 44, 8a-Ethyl-2-(2-(((3R,4S)-3-methyl-1-((1-methyl-1H-pyrazol-4-yl)sulfonyl)piperidin-4-yl)amino)-5-(trifluoromethyl)pyrimidin-4-yl)-7-(methylamino)-6,7,8,8a-tetrahydro-4H-thieno[2,3-a]pyrrolizin-4-one]
CDK4/Cyclin D1
  IC50: ≤ 100 nM
CDK2/Cyclin E2
  IC50: ≤ 100 nM
pRB in OVCAR3 cells
  IC50: ≤ 100 nM

## CS(=O)(=O)N1CCC(Nc2ncc(C(F)(F)F)c(-c3cc4c(s3)C3(C5CCC5)CCCN3C4=O)n2)CC1 (stereo not drawn) [Example 23, 8a-Cyclobutyl-2-(2-((1-(methylsulfonyl)piperidin-4-yl)amino)-5-(trifluoromethyl)pyrimidin-4-yl)-6,7,8,8a-tetrahydro-4H-thieno[2,3-a]pyrrolizin-4-one]
CDK4/Cyclin D1
  IC50: ≤ 100 nM
CDK2/Cyclin E2
  IC50: ≤ 100 nM
pRB in OVCAR3 cells
  IC50: 100 to 500 nM

## CC(C)C12CC(O)CN1C(=O)c1cc(-c3nc(NC4CCN(S(C)(=O)=O)CC4)ncc3C(F)(F)F)sc12 (stereo not drawn) [Example 29, 7-Hydroxy-8a-isopropyl-2-(2-((1-(methylsulfonyl)piperidin-4-yl)amino)-5-(trifluoromethyl)pyrimidin-4-yl)-6,7,8,8a-tetrahydro-4H-thieno[2,3-a]pyrrolizin-4-one]
CDK4/Cyclin D1
  IC50: ≤ 100 nM
CDK2/Cyclin E2
  IC50: ≤ 100 nM
pRB in OVCAR3 cells
  IC50: ≤ 100 nM

## CCC12CCCN1C(=O)c1cc(-c3nc(NC4CCN(S(C)(=O)=O)CC4)ncc3C(F)(F)F)sc12 (stereo not drawn) [Example 14, 8a-Ethyl-2-[2-[(1-methylsulfonylpiperidin-4-yl)amino]-5-(trifluoromethyl)pyrimidin-4-yl]-7,8-dihydro-6H-thieno[2,3-a]pyrrolizin-4-one]
CDK4/Cyclin D1
  IC50: ≤ 100 nM
CDK2/Cyclin E2
  IC50: ≤ 100 nM
pRB in OVCAR3 cells
  IC50: ≤ 100 nM

## CS(=O)(=O)N1CCC(Nc2ncc(C(F)(F)F)c(-c3cc4c(s3)C3(CO)CCCN3C4=O)n2)CC1 (stereo not drawn) [Example 17, 8a-(Hydroxymethyl)-2-(2-((1-(methylsulfonyl)piperidin-4-yl)amino)-5-(trifluoromethyl)pyrimidin-4-yl)-6,7,8,8a-tetrahydro-4H-thieno[2,3-a]pyrrolizin-4-one]
CDK4/Cyclin D1
  IC50: ≤ 100 nM
CDK2/Cyclin E2
  IC50: ≤ 100 nM
pRB in OVCAR3 cells
  IC50: 100 to 500 nM

## CCC12CC(F)(F)CN1C(=O)c1cc(-c3nc(NC4CCN(S(=O)(=O)c5cnn(C)c5)CC4)ncc3C(F)(F)F)sc12 (stereo not drawn) [Example 35, 8a-Ethyl-7,7-difluoro-2-(2-((1-((1-methyl-1H-pyrazol-4-yl)sulfonyl)piperidin-4-yl)amino)-5-(trifluoromethyl)pyrimidin-4-yl)-6,7,8,8a-tetrahydro-4H-thieno[2,3-a]pyrrolizin-4-one]
CDK4/Cyclin D1
  IC50: ≤ 100 nM
CDK2/Cyclin E2
  IC50: ≤ 100 nM
pRB in OVCAR3 cells
  IC50: ≤ 100 nM

## CCC12CC(NC)CN1C(=O)c1cc(-c3nc(N[C@H]4CCN(S(C)(=O)=O)C[C@H]4C)ncc3C(F)(F)F)sc12 (stereo partly drawn) [Example 43, 8a-Ethyl-2-(2-(((3R,4S)-3-methyl-1-(methylsulfonyl)piperidin-4-yl)amino)-5-(trifluoromethyl)pyrimidin-4-yl)-7-(methylamino)-6,7,8,8a-tetrahydro-4H-thieno[2,3-a]pyrrolizin-4-one]
CDK4/Cyclin D1
  IC50: ≤ 100 nM
CDK2/Cyclin E2
  IC50: ≤ 100 nM
pRB in OVCAR3 cells
  IC50: 100 to 500 nM

## [2H]C([2H])([2H])NC1CN2C(=O)c3cc(-c4nc(NC5CCN(S(C)(=O)=O)CC5)ncc4C(F)(F)F)sc3C2(CC)C1 (stereo not drawn) [Example 42, 8a-Ethyl-7-((methyl-d3)amino)-2-(2-((1-(methylsulfonyl)piperidin-4-yl)amino)-5-(trifluoromethyl)pyrimidin-4-yl)-6,7,8,8a-tetrahydro-4H-thieno[2,3-a]pyrrolizin-4-one]
CDK4/Cyclin D1
  IC50: ≤ 100 nM
CDK2/Cyclin E2
  IC50: ≤ 100 nM
pRB in OVCAR3 cells
  IC50: ≤ 100 nM

## CCC12CC(F)(F)CN1C(=O)c1cc(-c3nc(NC4CCN(S(C)(=O)=O)CC4)ncc3C(F)(F)F)sc12 (stereo not drawn) [Example 32, 8a-Ethyl-7,7-difluoro-2-(2-((1-(methylsulfonyl)piperidin-4-yl)amino)-5-(trifluoromethyl)pyrimidin-4-yl)-6,7,8,8a-tetrahydro-4H-thieno[2,3-a]pyrrolizin-4-one]
CDK4/Cyclin D1
  IC50: ≤ 100 nM
CDK2/Cyclin E2
  IC50: ≤ 100 nM
pRB in OVCAR3 cells
  IC50: ≤ 100 nM

## CCNC1CN2C(=O)c3cc(-c4nc(NC5CCN(S(C)(=O)=O)CC5)ncc4C(F)(F)F)sc3C2(CC)C1 (stereo not drawn) [Example 41, 8a-Ethyl-7-(ethylamino)-2-(2-((1-(methylsulfonyl)piperidin-4-yl)amino)-5-(trifluoromethyl)pyrimidin-4-yl)-6,7,8,8a-tetrahydro-4H-thieno[2,3-a]pyrrolizin-4-one]
CDK4/Cyclin D1
  IC50: ≤ 100 nM
CDK2/Cyclin E2
  IC50: ≤ 100 nM
pRB in OVCAR3 cells
  IC50: ≤ 100 nM

## CCC12CC(NC)CN1C(=O)c1cc(-c3nc(NC4CCN(S(=O)(=O)c5cnn(C)c5)CC4)ncc3C(F)(F)F)sc12 (stereo not drawn) [Example 49, 8a-Ethyl-2-(2-((1-((1-methyl-1H-pyrazol-4-yl)sulfonyl)piperidin-4-yl)amino)-5-(trifluoromethyl)pyrimidin-4-yl)-7-(methylamino)-6,7,8,8a-tetrahydro-4H-thieno[2,3-a]pyrrolizin-4-one]
CDK4/Cyclin D1
  IC50: ≤ 100 nM
CDK2/Cyclin E2
  IC50: ≤ 100 nM
pRB in OVCAR3 cells
  IC50: ≤ 100 nM
